The subject of series [1] is human erythrocytes. In words: Haemolytic activity. In kind it is cell-based. The conditions noted are these: 3% erythrocytes in PBS, 3 h, 37 °C; for Haemolysis (%): A414, relative to 0.1% Triton X-100, triplicate. On the procedure: Absorbance in the supernatant was measured at 414 nm. The haemolysis percentage was expressed in relation to a 100% lysis control (erythrocytes incubated with 0.1% Triton X-100); PBS was used as a negative control. Assays were conducted in triplicate.
Red blood cells were obtained under the same conditions and from the same donor mentioned in the plasma stability assay section.

The subject of series [2] is Pseudomonas aeruginosa ATCC 27853. The series can be described thus: Liquid growth inhibition assay (MIC/MBC). Type of series: cell-based. The conditions noted are these: PB medium, highest concentration tested 100 µM, triplicate. The method, then:
(§1) During the purification procedure, the antimicrobial activities of the fractions were monitored by liquid growth inhibition assays against E. coli SBS 363, M. luteus A270, A. niger, and C. albicans MDM8. Bacteria were cultured in poor nutrient broth (PB) (1.0 g peptone in 100 mL of water containing 86 mM NaCl at pH 7.4; 217 mOsm), and fungi and yeasts were cultured in poor potato dextrose broth (1/2- strength PDB) (1.2 g potato dextrose in 100 mL of water at pH 5.0; 79 mOsm). Determination of antimicrobial activity was performed as previously described[12]–[14].
(§2) The MIC is defined as the minimum concentration of peptide required to achieve 100% growth inhibition. […] The two peptides were dissolved in ultrapure water at a final concentration of 1 mM. […] MBCs were determined after 96 h of incubation at 30 °C. The lowest concentration with no visible growth was defined as the MBC, indicating 99.5% killing of the original inoculum. Microbial growth was measured by monitoring the increase in optical density at 595 nm using a Victor 3TM 1420 multilabel counter (PerkinElmer, Waltham, MA, USA). Assays were performed in triplicate.

In series [3] the test system is Bacillus megaterium ATCC 10778. The series can be described thus: Liquid growth inhibition assay (MIC/MBC). In kind it is cell-based. Particulars: PB medium, highest concentration tested 100 µM, triplicate. The method, then:
as §1, §2

Series [4] concerns Candida tropicalis IOC 4560. The series can be described thus: Liquid growth inhibition assay (MIC/MBC). Type of series: cell-based. Particulars: 1/2-strength PDB, highest concentration tested 100 µM, triplicate. On the procedure: as §1, §2
For series [5], the system named is Enterobacter cloacae β-12. The series can be described thus: Liquid growth inhibition assay (MIC/MBC). Type of series: cell-based. The conditions noted are these: PB medium, highest concentration tested 100 µM, triplicate. The method, then: as §1, §2
Series [6] concerns Saccharomyces cerevisiae PM340. The series can be described thus: Liquid growth inhibition assay (MIC/MBC). Type of series: cell-based. The conditions noted are these: 1/2-strength PDB, highest concentration tested 100 µM, triplicate. On the procedure:
as §1, §2

The test system of series [7] is Beauveria bassiana. The series can be described thus: Liquid growth inhibition assay (MIC/MBC). Type of series: cell-based. The conditions noted are these: 1/2-strength PDB, highest concentration tested 100 µM, triplicate. The method, then:
as §1, §2

Series [8] relates to Salmonella Arizonae ATCC 13314. In words: Liquid growth inhibition assay (MIC/MBC). Type of series: cell-based. The conditions noted are these: PB medium, highest concentration tested 100 µM, triplicate. On the procedure:
as §1, §2

Series [9] relates to Escherichia coli D31. In words: Liquid growth inhibition assay (MIC/MBC). Type of series: cell-based. The conditions noted are these: PB medium, highest concentration tested 100 µM, triplicate. On the procedure:
as §1, §2

The subject of series [10] is Alcaligenes faecalis ATCC 8750. The series can be described thus: Liquid growth inhibition assay (MIC/MBC). In kind it is cell-based. Particulars: PB medium, highest concentration tested 100 µM, triplicate. The method, then:
as §1, §2

Series [11] deals with Candida albicans MDM8. The series can be described thus: Liquid growth inhibition assay (MIC/MBC). Type of series: cell-based. The conditions noted are these: 1/2-strength PDB, highest concentration tested 100 µM, triplicate. The method, then:
as §1, §2

Series [12] concerns Micrococcus luteus A270. The series can be described thus: Liquid growth inhibition assay (MIC/MBC). In kind it is cell-based. The conditions noted are these: PB medium, highest concentration tested 100 µM, triplicate. On the procedure: as §1, §2
Series [13] deals with Bacillus subtilis ATCC 6633. The series can be described thus: Liquid growth inhibition assay (MIC/MBC). In kind it is cell-based. The conditions noted are these: PB medium, highest concentration tested 100 µM, triplicate. The method, then: as §1, §2
Series [14] concerns Aspergillus niger. The series can be described thus: Liquid growth inhibition assay (MIC/MBC). Type of series: cell-based. The conditions noted are these: 1/2-strength PDB, highest concentration tested 100 µM, triplicate. The method, then:
as §1, §2

Series [15] has as its system Escherichia coli SBS 363. In words: Liquid growth inhibition assay (MIC/MBC). Type of series: cell-based. The conditions noted are these: PB medium, highest concentration tested 100 µM, triplicate. The method, then: as §1, §2
Series [16] relates to Salmonella Typhimurinum ATCC 14028. In words: Liquid growth inhibition assay (MIC/MBC). Type of series: cell-based. Particulars: PB medium, highest concentration tested 100 µM, triplicate. The method, then: as §1, §2
Series [17] has as its system Serratia marcescens ATCC 4112. In words: Liquid growth inhibition assay (MIC/MBC). Type of series: cell-based. Particulars: PB medium, highest concentration tested 100 µM, triplicate. The method, then:
as §1, §2

Series [18] concerns Staphylococcus aureus ATCC 29213. In words: Liquid growth inhibition assay (MIC/MBC). In kind it is cell-based. Particulars: PB medium, highest concentration tested 100 µM, triplicate. The method, then: as §1, §2
For series [19] the following is noted: 25% fresh human blood plasma in water, 37 °C; 20 µL of 10 mg/mL peptide stock in 1 mL; TFA quench; LC/ESI-MS peak area; triplicate; followed over 360 min. The method, then:
An aliquot (20 μL) of the aqueous peptide stock solution (10 mg/mL) was added to 1 mL of 25% solution of fresh human blood plasma in water at 37 °C. Aliquots (50 μL) were withdrawn and added to 5 μL of pure trifluoroacetic acid (TFA) at different time intervals, then incubated at 5 °C for 15 min. Following incubation, the resulting mixtures were centrifuged at 3000 g for 5 min. The supernatants (20 μL) were injected into an online LC/ESI-MS equipment. Elution was performed using an ACN/TFA linear gradient of 3% to 57% ACN at a flow rate of 0.3 mL/min for 30 min. The remaining peptide was monitored by the corresponding peak area in the chromatogram. Assays were conducted in triplicate.
The human blood sample was obtained from a healthy adult donor at Vital Brazil Hospital in accordance with Ethical Guidelines of the Butantan Institute (protocol CEUAIB No. I-1043/13). Written informed consent was obtained from the donor.

In series [20] the test system is All of the microorganisms tested. The series can be described thus: Antimicrobial activity, summary over all microorganisms tested. In kind it is cell-based. The conditions noted are these: summary of Table 1; 17 bacterial, yeast and fungal strains. On the procedure: as §1, §2
Setting [21] is: 100% growth inhibition, two-fold serial dilution, 30 °C, 18 h.
Where [22] appears, read: no visible growth after 96 h at 30 °C.

Molecules are shown by their SMILES. Converted amounts (≈) assume the structure as drawn. Where a SMILES comes first, the peptide text is derived from it. Where only a bound is given, the exact number is not on record here.

A word on the MIC: it is the lowest concentration that inhibits growth of the organism. Read a high MIC as weaker potency. For `CC(C)[C@H](N)C(=O)N[C@@H](C)C(=O)N[C@@H](CCC(=O)O)C(=O)N[C@@H](C)C(=O)N[C@@H](CCCNC(=N)N)C(=O)N[C@@H](CCC(N)=O)C(=O)NCC(=O)N[C@@H](CO)C(=O)N[C@@H](Cc1ccccc1)C(=O)N[C@@H](CO)C(=O)N[C@@H](Cc1ccc(O)cc1)C(=O)O` [Pinipesin] (H-VAEARQGSFSY-OH), the “Haemolysis (%)” value in series [1] (4 µM peptide), in [1] (8 µM peptide), in series [1] (16 µM peptide), in [1] (32 µM peptide), in [1] (125 µM peptide) and in series [1] (250 µM peptide) was 0% each time. The “Haemolysis (%)” value in series [1] (500 µM peptide) was found to be 25.14%. Moreover, the “Haemoglobin release at the concentrations active against bacteria, yeasts and fungi” value in series [1] is “No haemoglobin release was observed”. The MIC in series [2] (setting [21]) came to 15.16 µg/mL (≈ 12.5 µM); in [3] (setting [21]), 15.16 µg/mL (≈ 12.5 µM); in [4] (setting [21]), 30.33 µg/mL (≈ 25 µM); in [5] (setting [21]) it was 30.33 µg/mL (≈ 25 µM); in series [6] (setting [21]), 30.33 µg/mL (≈ 25 µM); in [7] (setting [21]) it was 30.33 µg/mL (≈ 25 µM). Further, the MIC in series [8] (setting [21]) worked out at 30.33 µg/mL (≈ 25 µM); in series [9] (setting [21]) it was 15.16 µg/mL (≈ 12.5 µM); in series [10] (setting [21]), 15.16 µg/mL (≈ 12.5 µM); in [11] (setting [21]) it was 30.33 µg/mL (≈ 25 µM); in [12] (setting [21]), 7.58 µg/mL (≈ 6.24 µM); in series [13] (setting [21]), 30.33 µg/mL (≈ 25 µM). The MIC in series [14] (setting [21]) was 30.33 µg/mL (≈ 25 µM); in series [15] (setting [21]), 30.33 µg/mL (≈ 25 µM); in series [16] (setting [21]), 15.16 µg/mL (≈ 12.5 µM); in series [17] (setting [21]), 30.33 µg/mL (≈ 25 µM); in [18] (setting [21]), 7.58 µg/mL (≈ 6.24 µM). The MBC in series [2] (setting [22]) is on record as 15.16 µg/mL (≈ 12.5 µM); in series [3] (setting [22]), 15.16 µg/mL (≈ 12.5 µM); in series [4] (setting [22]), 30.33 µg/mL (≈ 25 µM); in [5] (setting [22]), 30.33 µg/mL (≈ 25 µM); in series [6] (setting [22]), 30.33 µg/mL (≈ 25 µM); in series [7] (setting [22]) it was 30.33 µg/mL (≈ 25 µM). Also, the MBC is reported as 30.33 µg/mL (≈ 25 µM) in series [8] (setting [22]); 15.16 µg/mL (≈ 12.5 µM) in series [9] (setting [22]); 15.16 µg/mL (≈ 12.5 µM) in [10] (setting [22]); 30.33 µg/mL (≈ 25 µM) in [11] (setting [22]); 15.16 µg/mL (≈ 12.5 µM) in [12] (setting [22]); 30.33 µg/mL (≈ 25 µM) in series [13] (setting [22]). For the same compound, the MBC in series [14] (setting [22]) is 30.33 µg/mL (≈ 25 µM); in series [15] (setting [22]) it was 30.33 µg/mL (≈ 25 µM); in [16] (setting [22]) it was 15.16 µg/mL (≈ 12.5 µM); in [17] (setting [22]), 30.33 µg/mL (≈ 25 µM); in [18] (setting [22]), 7.58 µg/mL (≈ 6.24 µM). Further, in series [19], the “Time within which peptide is almost totally digested in human plasma” value is at most 60 min.
With `CC(=O)N[C@H](C(=O)N[C@@H](C)C(=O)N[C@@H](CCC(=O)O)C(=O)N[C@@H](C)C(=O)N[C@@H](CCCNC(=N)N)C(=O)N[C@@H](CCC(N)=O)C(=O)NCC(=O)N[C@@H](CO)C(=O)N[C@@H](Cc1ccccc1)C(=O)N[C@@H](CO)C(=O)N[C@@H](Cc1ccc(O)cc1)C(N)=O)C(C)C` [Pinipesin AC] (Ac-VAEARQGSFSY-NH2), the “Concentrations at which active against all microorganisms tested” value in [20] is “did not show antimicrobial activity”. The “Time within which peptide is almost totally digested in human plasma” value in [19] is reported as at most 60 min.

The values above are taken from PMC6754450, “Antimicrobial activity and mechanism of action of a novel peptide present in the ecdysis process of centipede Scolopendra subspinipes subspinipes” (Scientific Reports, 2019).
